For one series, the target named is T1, recombinant SHP-1 (Homo sapiens, UniProt P29350).
T1 construct: Recombinant protein of SHP-1 PTPase catalytic domain was described
T1 sequence (P29350 244-515 limits assumed): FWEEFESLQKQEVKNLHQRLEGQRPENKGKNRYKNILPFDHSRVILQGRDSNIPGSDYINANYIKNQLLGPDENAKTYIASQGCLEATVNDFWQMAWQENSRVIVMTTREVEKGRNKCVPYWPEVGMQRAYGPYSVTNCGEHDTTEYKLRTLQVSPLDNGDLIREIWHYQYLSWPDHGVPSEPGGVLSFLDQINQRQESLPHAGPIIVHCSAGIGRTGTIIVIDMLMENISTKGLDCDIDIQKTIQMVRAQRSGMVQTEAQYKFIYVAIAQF
Description: rapid in vitro SHP-1 PTPase assay (DIFMUP fluorescence substrate). As to conditions: for inhibition of phosphatase activity of recombinant SHP-1: L5 and analogs, 1 μg/well, FIG. 12A. The series is classed as biochemical. The protocol:
Recombinant protein of SHP-1 PTPase catalytic domain was described and stored in Tris buffer (25 mM Tris, pH7.5, 1 mM EDTA, 2 μM 2-ME, 25% glycerol) at −80° C. Fluorescence substrate DIFMUP (6,8-difluoro-4 methylumbelliferyl phosphate) was purchased (Molecular Probes). SSG was reported previously (21-23) and stored at 4° C. in darkness prior to use. Human and mouse IFNγ ELISPOT Kit (R & D System), CD4^+ Cell Intracellular IFNγ Detection Kit (BD Bioscience) and CD8^+ Cell Intracellular IFNγ Detection Kit (BD Bioscience) were purchased from commercial sources. Human Jurkat T cell line (26) and murine B16 melanoma cell line (ATCC) were maintained in […] culture medium supplemented with 10% fetal calf serum (FCS). Antibodies against pLck-pY394 (Cell Signaling), pLck-pY505 (Cell Signaling), pZap70 (pY319, BD Biosciences), pSlp76 (pY128, BD Biosciences) and pLat (pY226, BD Biosciences) were purchased from commercial sources.
A rapid SHP-1 PTPase assay was developed for screening the compounds in a commercial library of 34,000 drug-like small chemicals (Chembridge, Mass.). Briefly, compounds of the library (1 μg/well in […]) were placed in 96-well plates (Falcon, 353072) and mixed with recombinant SHP-1 protein (0.1 μg/well) in […] of HEPES buffer (50 mM HEPS, pH 7.5, 150 mM NaCl, 1 mM EDTA, 0.2 mM DTT and 0.1 mg/ml BSA). The plates were incubated at room temperature for 10 minutes prior to the addition of fluorescence substrate DIFMUP (40 μM stock in HEPES buffer, 10 μl/well) to initiate PTPase reaction. Upon completion of PTPase reaction at room temperature for 1 hr in darkness, fluorescence signal of individual wells were recorded using a Vector^2 Multilabel Counter (Vector, CA). They were compared to that of control SHP-1 PTPase reaction (˜10,000 units of fluorescence signal) in the absence of any compound (100%) for calculating relative SHP-1 inhibition induced by the compounds after subtracting the background signal (˜500 units of fluorescence signal) of the substrate.
To evaluate their SHP-1 inhibitory activity, the analogs (1 μg/well in 0.2 μl DMSO) were aliquot individually to 96-well plates (Falcon, 353072) and mixed with recombinant SHP-1 protein (0.1 μg/well) in 90 μl of HEPES buffer (50 mM HEPS, pH 7.5, 150 mM NaCl, 1 mM EDTA, 0.2 mM DTT and 0.1 mg/ml BSA). The plates were incubated at room temperature for 10 minutes prior to the addition of fluorescence substrate DIFMUP (40 μM stock in HEPES buffer, 10 μl/well) to initiate PTPase reaction. Upon completion of PTPase reaction at room temperature for 1 hr in darkness, fluorescence signal of individual wells were recorded using a Vector^2 Multilabel Counter (Vector, CA). […]

For a further series, the system named is mouse splenocytes. Put plainly: induction of IFNγ+ cells in mouse splenocytes in vitro (ELISPOT). Format: cell-based. As to conditions: 1 μg/ml; FIG. 11. The protocol:
The splenocytes were cultured in RPMI 1640 medium supplemented with 10% FCS in the absence or presence of designated agents for 16 hrs in flat-bottom 96-well plates coated with a monoclonal antibody specific for mouse IFNγ (mouse IFNγ ELISPOT Kit, R & D System). The plates were then processed for in situ detection of IFNγ+ cells by ELISA following the manufacturer's procedure. Scanning and counting of IFNγ+ cells in the plates were accomplished using an automatic ELISPOT reader with Immunospot2 software (Cellular Technology Ltd). Mouse splenocytes were also untreated or treated with agents for 16 hrs in culture dishes and then stained with appropriate isotype control antibodies or FICT-labeled anti-CD3 monoclonal antibody (BD) plus PE-labeled monoclonal antibody (BD) for intracellular IFNγ following established procedures. The stained samples were washed 3 times, re-suspended in 200 μl of 1% para-formaldehyde solution and analyzed (20,000 cells/sample) using a BD FACS Caliburs cytometer and WinList software.
The splenocytes were cultured in RPMI 1640 medium supplemented with 10% FCS in the absence or presence of designated agents for 16 hrs in flat-bottom 96-well plates coated with a monoclonal antibody specific for mouse IFNγ (mouse IFNγ ELISPOT Kit, R & D System). The plates were then processed for in situ detection of IFNγ+ cells by ELISA following the manufacturer's procedure. Scanning and counting of IFNγ+ cells in the plates were accomplished using an automatic ELISPOT reader with Immunospot2 software (Cellular Technology Ltd).

The test system of the next series is B16 melanoma cells. Description: B16 melanoma cell growth in culture (MTT assay). Format: cell-based, mouse. As to conditions: 6 days; FIG. 13C. The protocol: Data represent mean±SD of triplicate samples. […] Tumor volumes were recorded as indicated. C, Athymic nude mice bearing 4-day-established B16 tumors were subjected to differential treatments as in B. Tumor volumes were recorded as indicated.
L5, L6 and L6 analogs (Chembridge), mouse IFNγ ELISPOT Kit (R & D System) and antibody against pLck-pY394 or pERK1/2 (Cell Signaling) were purchased from commercial sources. Human Jurkat T cell line and murine B16 melanoma cell line (ATCC) and other cancer cell lines were maintained in […] culture medium supplemented with 10% fetal calf serum (FCS). The effects of chemical compounds on cancer cell growth in culture were quantified by MTT assays following our established procedures.
A general note: Formazan colour is commonly taken as a measure of viable cells.

The subject of series [1] is CD3+ and CD3- IFNγ+ splenocytes. Put plainly: spleno-IFNγ+ cells in B16 tumor mice (CD3/intracellular IFNγ FACS). Format: in vivo, mouse. As to conditions: 1 mg/kg oral, day 22. The protocol:
Splenocytes from mice untreated or treated with L5a2 were stained with appropriate isotype control antibodies or FICT-labeled anti-CD3 monoclonal antibody (BD) plus PE-labeled monoclonal antibody (BD) for intracellular IFNγ following established procedures. The stained samples were washed 3 times, re-suspended in 200 μl of 1% para-formaldehyde solution and analyzed (20,000 cells/sample) using a BD FACS Caliburs cytometer and FlowJoe software.
To gain further insights into the mechanism of action in L5a2 in vivo, spleens were harvested from the B16 tumor mice in the control and the L5a2-treated groups (FIG. 13A) on day 22 to assess whether L5a2 induced IFNγ+ cells in the tumor-bearing mice. It was also determined whether the induced-IFNγ+ cells were of CD3+ T lymphocytes, which were activated TH1 critical for anti-tumor immunity. Splenocytes were prepared and co-stained for intracellular IFNγ and the T cell surface marker CD3 for quantification of IFNγ+ T cells by flow cytometry.

A further series concerns the target T2, intracellular SHP-1 (Homo sapiens, UniProt P29350).
T2 construct: endogenous in cells; host or cells: Jurkat
Description: tyrosine phosphorylation of SHP-1 substrates in Jurkat cells (SDS-PAGE/Western blotting, densitometry). Format: cell-based. The protocol: (§1) Jurkat cells in culture medium (3×10^6 cells/ml, 1 ml/tube) were treated with agents for designated times at room temperature. After brief centrifuging in a microfuge (4,000 rpm, 2 min), the cell pellet was lysed on ice for 30 min in 1001 of cold lysis buffer (1% NP40, 50 mM Tris, pH 7.4, 150 mM NaCl, 20 mM NaF, 0.2 mM Na3VO4 and 1 mM Na3MO4) containing a cocktail of proteinase inhibitors (Sigma, 1 tablet/10 ml). The lysates were cleared by centrifuging (14,000 rpm, 10 min) in a microfuge at 4° C. to remove insoluble parts, mixed with equal volume of 2×SDS-PAGE sample buffer, boiled for 5 min and analyzed (˜3×10^5 cells/well) by SDS-PAGE/Western blotting. Relative intensities of phosphotyrosine bands were quantified through densitometry analysis.
as §1, with “100 μl” for “1001”, “blotting as described previously (23, 24).” for “blotting.”
as §1, with “100 μl” for “1001”, “blotting as described previously (17, 18).” for “blotting.”
A general note: A western blot detects proteins with antibodies after separation by electrophoresis.

Another series has as its target T3, SHP-2 (Homo sapiens, UniProt Q06124).
T3 sequence (Q06124 1-593): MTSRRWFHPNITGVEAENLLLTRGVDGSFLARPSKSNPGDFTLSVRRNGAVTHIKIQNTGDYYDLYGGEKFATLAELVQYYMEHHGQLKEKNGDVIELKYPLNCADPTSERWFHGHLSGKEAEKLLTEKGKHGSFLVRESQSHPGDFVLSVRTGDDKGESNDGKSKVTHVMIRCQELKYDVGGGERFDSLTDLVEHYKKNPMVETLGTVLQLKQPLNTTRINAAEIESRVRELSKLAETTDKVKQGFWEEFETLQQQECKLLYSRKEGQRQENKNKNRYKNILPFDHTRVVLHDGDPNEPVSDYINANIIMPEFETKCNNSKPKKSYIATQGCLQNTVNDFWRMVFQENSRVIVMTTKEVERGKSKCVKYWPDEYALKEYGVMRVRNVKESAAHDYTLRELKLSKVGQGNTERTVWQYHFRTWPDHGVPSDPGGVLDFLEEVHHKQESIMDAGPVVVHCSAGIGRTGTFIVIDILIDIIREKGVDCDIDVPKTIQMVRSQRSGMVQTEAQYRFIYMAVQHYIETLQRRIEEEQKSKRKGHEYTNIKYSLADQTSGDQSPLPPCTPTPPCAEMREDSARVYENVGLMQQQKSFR
Put plainly: SHP-2 inhibition by SSG (applicant's earlier studies). Conditions: recombinant and intracellular SHP-2.

T2 sequence (P29350 whole entry): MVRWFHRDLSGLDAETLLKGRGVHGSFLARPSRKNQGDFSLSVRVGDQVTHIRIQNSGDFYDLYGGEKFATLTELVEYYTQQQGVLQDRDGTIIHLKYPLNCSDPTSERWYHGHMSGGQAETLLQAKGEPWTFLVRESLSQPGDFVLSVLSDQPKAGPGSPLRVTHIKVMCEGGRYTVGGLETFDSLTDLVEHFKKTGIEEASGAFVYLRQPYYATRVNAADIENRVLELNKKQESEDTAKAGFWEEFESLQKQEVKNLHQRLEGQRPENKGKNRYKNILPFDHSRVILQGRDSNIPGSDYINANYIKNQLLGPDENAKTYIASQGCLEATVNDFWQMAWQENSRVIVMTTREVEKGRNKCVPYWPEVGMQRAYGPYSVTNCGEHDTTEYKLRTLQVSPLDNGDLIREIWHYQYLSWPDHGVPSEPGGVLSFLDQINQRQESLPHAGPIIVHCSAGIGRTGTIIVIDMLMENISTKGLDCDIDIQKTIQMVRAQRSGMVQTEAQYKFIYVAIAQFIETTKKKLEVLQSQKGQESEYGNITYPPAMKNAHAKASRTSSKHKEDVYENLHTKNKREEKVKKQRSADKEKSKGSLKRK
Description for B16 melanoma tumors: Tumor volume (n=5) was measured during the study period and calculated using the formula for a prolate spheroid. Student's t test was used for assessing the significance of tumor volume differences among differential treatment groups. Mouse viability (daily) and body weights (weekly) were also recorded during the study period. Major internal organs of the mice were inspected visually upon their termination at the end of the experiment.
To assess anti-tumor activity, C57BL/6J mice (˜8-week old, female, Taconic Farms, Germantown, N.Y.) were inoculated (s. c.) at the flanks with B16 melanoma cells (4×10^4 cells/site). […] Tumor volume (n=5) was measured during the study period and calculated using the formula for a prolate spheroid. Student's t test was used for assessing the significance of tumor volume differences among differential treatment groups. Mouse viability (daily) and body weights (weekly) were also recorded during the study period. Major internal organs of the mice were inspected visually upon their termination at the end of the experiment.

Turning to `O=C1C=CC(=O)C(c2cccc(Cl)c2)=C1` [L5a2], the “inhibition of phosphatase activity of recombinant SHP-1” value on recombinant SHP-1 was “completely or almost completely inhibited”. The “induction of IFNγ+ cells” value with mouse splenocytes was roughly 20 fold. For the same compound, in the series on B16 melanoma cells, the “inhibition of B16 melanoma cells in culture” value was “failed to inhibit”. Also, in series [1], the “increase of CD3+ IFNγ+ cells” value was roughly 4.5 fold and the “increase of CD3- IFNγ+ cells” value stood at 1.3 fold. Moreover, in the series with B16 melanoma tumors (1 mg/kg/daily, M-F/wk, oral, day 22), the “B16 tumor growth inhibition versus control” value is listed as roughly 75%. Besides, the “tolerance of treated tumor mice (behavior, gross anatomy)” value in the series with B16 melanoma tumors (mouse, in vivo) is reported as “no apparent abnormality”.
For `O=C1C=C(c2ccccc2)C(=O)c2ccccc21` [L5a3], the “inhibition of phosphatase activity of recombinant SHP-1” value on recombinant SHP-1 was roughly 80%.
For `O.O.O.O.O.O.O.O.O.O=C([O-])[C@@H]1[O][Sb]2([O-])([O][Sb]34([OH])[O][C@H]([C@H](O)CO)[C@H]([O]3)[C@H](C(=O)[O-])[O]4)[O][C@H]([C@H](O)CO)[C@@H]1[O]2.[Na+].[Na+].[Na+]` [SSG, Sodium Stibogluconate, reference compound], the “level at which SHP-1 is inhibited” value at recombinant SHP-1 (recombinant and intracellular SHP-1) was found to be 10 µg/mL. Moreover, the pLck-pY394 induction on intracellular SHP-1 (10 μg/ml, 10 min) is on record as roughly 2 fold; at intracellular SHP-1 (lower (1 μg/ml) or higher (100 μg/ml) doses), “failed”. Further, the “dose effective in inducing pLck-pY394 (lowest / only effective dose)” value at intracellular SHP-1 (10 min treatment) is 10 μg/ml. The “level active against intracellular SHP-1” value on intracellular SHP-1 (Jurkat T cells, molar equivalent) was roughly 14 µM. The “level at which SHP-2 is inhibited” value on SHP-2 amounted to 10 µg/mL.

These data come from patent US7939554B2, “Protein phosphatase inhibitors” (The Cleveland Clinic Foundation, priority 2006, dated 2011).
